Laboratory results published in patent publication US9969749B2, “Inhibitors of IRAK4 activity” (MERCK SHARP & DOHME CORP., priority 2014, dated 2018).

Target: IRAK4 (Homo sapiens (Human), UniProt Q9NWZ3)
Assay: IRAK4 Kinase Assay (IMAP fluorescence polarization)
Format: biochemical
Settings: 0.5 nM GST tagged IRAK4, 100 μM ATP, 100 nM fluorescent peptide substrate RP7030, 30 minutes at 25° C.
Experimental: The kinase activity of IRAK4 is determined by its ability to catalyze the phosphorylation of a fluorescent polypeptide substrate. The extent of phosphorylation is measured using the IMAP technology (Molecular Devices) where the phosphorylated fluorescent substrate binds to the large M(III)-based nanoparticles which reduces the rotational speed of the substrate and thus increases its fluorescent polarization (FP).
20 μL reaction mixture contains 10 mM TriHCl, pH 7.2, 0.5 nM GST tagged IRAK4 (SignalChem), 100 nM fluorescent peptide substrate (RP7030, Molecular Devices), 100 μM ATP, 1 mM DDT, 1 mM MgCl2, and 0.01% Tween 20. The reaction is initiated by the addition of ATP. After incubation for 30 minutes at 25° C., 60 μL of Progressive IMAP Reagent (Molecular Devices) is added to stop the reaction. Change in RP7030's FP is determined by a FP reader (Analyst HT, LJL BioSystems).

Sequence of IRAK4 (Q9NWZ3 whole entry): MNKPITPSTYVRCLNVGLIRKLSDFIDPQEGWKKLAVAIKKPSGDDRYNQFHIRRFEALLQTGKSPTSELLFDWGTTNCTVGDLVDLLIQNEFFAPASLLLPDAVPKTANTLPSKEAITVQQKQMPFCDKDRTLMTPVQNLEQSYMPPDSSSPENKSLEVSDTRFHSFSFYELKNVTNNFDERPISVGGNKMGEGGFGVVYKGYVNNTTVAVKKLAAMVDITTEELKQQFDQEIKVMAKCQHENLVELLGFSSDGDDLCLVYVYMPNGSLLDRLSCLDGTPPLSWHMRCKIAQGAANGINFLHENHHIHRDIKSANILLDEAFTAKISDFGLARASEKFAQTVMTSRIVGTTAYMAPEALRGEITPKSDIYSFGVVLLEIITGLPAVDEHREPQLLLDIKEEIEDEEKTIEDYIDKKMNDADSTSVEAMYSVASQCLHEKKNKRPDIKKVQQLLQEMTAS

Row | Structure (SMILES) | IC50 [nM]
1 | Cn1cc(-c2ccc3ncnc(N[C@H]4CC[C@H](N(C)C)CC4)c3c2)cn1 [Example 1-9, trans-N,N-dimethyl-N′-[6-(1-methyl-1H-pyrazol-4-yl)quinazolin-4-yl]cyclohexane-1,4-diamine] | 5
2 | CN(C)C1CCC(Nc2ncnc3ccc(-c4cn[nH]c4)cc23)CC1 (stereo not drawn) [Example 1-10, cis or trans-N,N-dimethyl-N′-[6-(1H-pyrazol-4-yl)quinazolin-4-yl]cyclohexane-1,4-diamine] | 1
3 | CN(C)[C@H]1CC[C@H](Nc2ncnc3ccc(-c4cnn(C5CCCCO5)c4)cc23)CC1 (stereo partly drawn) [Example 1-16, trans-N,N-dimethyl-N′-{6-[1-(tetrahydro-2H-pyran-2-yl)-1H-pyrazol-4-yl]quinazolin-4-yl}cyclohexane-1,4-diamine] | 217
4 | CN(C)[C@H]1CC[C@H](Nc2ncnc3ccc(-c4ccnnc4)cc23)CC1 [Example 1-50, trans-N,N-dimethyl-N′-[6-(pyridazin-4-yl)quinazolin-4-yl]cyclohexane-1,4-diamine] | 11
5 | CN(C)[C@H]1CC[C@H](Nc2ncnc3ccc(-c4cncc(C(=O)O)c4)cc23)CC1 [Example 1-37, 5-(4-{[trans-4-(dimethylamino)cyclohexyl]amino}quinazolin-6-yl)pyridine-3-carboxylic acid] | 504
6 | CC(C)(O)c1cncc(-c2ccc3ncnc(N[C@H]4CC[C@H](N5CCOCC5)CC4)c3c2)c1 [Example 1-95, 2-[5-(4-{[trans-4-(morpholin-4-yl)cyclohexyl]amino}quinazolin-6-yl)pyridin-3-yl]propan-2-ol] | 330
7 | Oc1cc(-c2ccc3ncnc(N[C@H]4CC[C@H](N5CCOCC5)CC4)c3c2)cnc1Cl [Example 1-100, 2-chloro-5-(4-{[trans-4-(morpholin-4-yl)cyclohexyl]amino}quinazolin-6-yl)pyridin-3-ol] | 1
8 | CN(C)[C@H]1CC[C@H](Nc2ncnc3ccc(-c4cnc5cc[nH]c5c4)cc23)CC1 [Example 1-59, trans-N,N-dimethyl-N′-[6-(1H-pyrrolo[3,2-b]pyridin-6-yl)quinazolin-4-yl]cyclohexane-1,4-diamine] | 124
9 | Oc1cc(F)cc(-c2ccc3ncnc(N[C@H]4CC[C@H](N5CCOCC5)CC4)c3c2)c1 [Example 1-66, 3-fluoro-5-{4-[(trans-4-morpholin-4-ylcyclohexyl)amino]quinazolin-6-yl}phenol] | 5
10 | CN(C)[C@H]1CC[C@H](Nc2ncnc3ccc(-c4cnccc4C(F)(F)F)cc23)CC1 [Example 1-36, trans-N,N-dimethyl-N′-{6-[4-(trifluoromethyl)pyridin-3-yl]quinazolin-4-yl}cyclohexane-1,4-diamine] | 19
11 | COc1cc(-c2ccc3ncnc(N[C@H]4CC[C@H](N(C)C)CC4)c3c2)ccn1 [Example 1-8, trans-N′-[6-(2-methoxypyridin-4-yl)quinazolin-4-yl]-N,N-dimethylcyclohexane-1,4-diamine] | 25
12 | CN(C)[C@H]1CC[C@H](Nc2ncnc3ccc(-c4cnn(Cc5ccccn5)c4)cc23)CC1 [Example 1-17, trans-N,N-dimethyl-N′-{6-[1-(pyridin-2-ylmethyl)-1H-pyrazol-4-yl]quinazolin-4-yl}cyclohexane-1,4-diamine] | 372
13 | Nc1cccc(-c2ccc3ncnc(N[C@H]4CC[C@H](N5CCOCC5)CC4)c3c2)c1 [Example 1-83, 6-(3-aminophenyl)-N-(trans-4-morpholin-4-ylcyclohexyl)quinazolin-4-amine] | 9
14 | Cc1ncc(-c2ccc3ncnc(N[C@H]4CC[C@H](N5CCOCC5)CC4)c3c2)cn1 [Example 1-89, 6-(2-methylpyrimidin-5-yl)-N-[trans-4-(morpholin-4-yl)cyclohexyl]quinazolin-4-amine] | 18
15 | COc1cncc(-c2ccc3ncnc(N[C@H]4CC[C@H](N5CCOCC5)CC4)c3c2)c1 [Example 1-69, 6-(5-methoxypyridin-3-yl)-N-[trans-4-(morpholin-4-yl)cyclohexyl]quinazolin-4-amine] | 18
16 | OCc1cncc(-c2ccc3ncnc(N[C@H]4CC[C@H](N5CCOCC5)CC4)c3c2)c1 [Example 1-94, [5-(4-{[trans-4-(morpholin-4-yl)cyclohexyl]amino}quinazolin-6-yl)pyridin-3-yl]methanol] | 10
17 | CN(C)[C@H]1CC[C@H](Nc2ncnc3ccc(-c4ccc(O)nc4)cc23)CC1 [Example 1-28, 5-(4-{[trans-4-(dimethylamino)cyclohexyl]amino}quinazolin-6-yl)pyridin-2-ol] | 7
18 | Fc1cncc(-c2ccc3ncnc(N[C@H]4CC[C@H](N5CCOCC5)CC4)c3c2)c1 [Example 1-97, 6-(5-fluoropyridin-3-yl)-N-[trans-4-(morpholin-4-yl)cyclohexyl]quinazolin-4-amine] | 22
19 | CN(C)[C@H]1CC[C@H](Nc2ncnc3ccc(-c4cc(O)cc(F)c4)cc23)CC1 [Example 1-63, 3-(4-{[trans-4-(dimethylamino)cyclohexyl]amino}quinazolin-6-yl)-5-fluorophenol] | 3
20 | c1cc(-c2ccc3ncnc(N[C@H]4CC[C@H](N5CCOCC5)CC4)c3c2)c2cc[nH]c2c1 [Example 1-88, 6-(1H-indol-4-yl)-N-[trans-4-(morpholin-4-yl)cyclohexyl]quinazolin-4-amine] | 100
21 | Fc1cc(F)cc(-c2ccc3ncnc(N[C@H]4CC[C@H](N5CCOCC5)CC4)c3c2)c1 [Example 1-68, 6-(3,5-difluorophenyl)-N-(trans-4-morpholin-4-ylcyclohexyl)quinazolin-4-amine] | 25
22 | Oc1cncc(-c2ccc3ncnc(N[C@H]4CC[C@H](N5CCOCC5)CC4)c3c2)c1 [Example 1-65, 5-(4-{[trans-4-(morpholin-4-yl)cyclohexyl]amino}quinazolin-6-yl)pyridin-3-ol] | < 0.5

Other lines, results leading:

Row | IC50 [nM] | Structure (SMILES)
23 | 152 | Cn1nncc1-c1ccc2ncnc(N[C@H]3CC[C@H](N4CCOCC4)CC3)c2c1 [Example 2-15, 6-(1-methyl-1H-1,2,3-triazol-5-yl)-N-(trans-4-morpholin-4-ylcyclohexyl)quinazolin-4-amine]
24 | 1 | CN1CCN([C@H]2CC[C@H](Nc3ncnc4ccc(-c5cncc(O)c5)cc34)CC2)CC1 [Example 5-5, 5-(4-{[trans-4-(4-methylpiperazin-1-yl)cyclohexyl]amino}quinazolin-6-yl)pyridin-3-ol]
25 | 80 | FC(F)(F)c1n[nH]cc1-c1ccc2ncnc(N[C@H]3CC[C@H](N4CCOCC4)CC3)c2c1 [Example 2-14, N-(trans-4-morpholin-4-ylcyclohexyl)-6-[3-(trifluoromethyl)-1H-pyrazol-4-yl]quinazolin-4-amine]
26 | 48 | c1nc(N[C@H]2CC[C@H](N3CCOCC3)CC2)c2cc(-c3cnc4c(c3)NCC4)ccc2n1 [Example 2-16, 6-(2,3-dihydro-1H-pyrrolo[3,2-b]pyridin-6-yl)-N-[trans-4-(morpholin-4-yl)cyclohexyl]quinazolin-4-amine]
27 | 1 | CNc1cc(-c2ccc3ncnc(N[C@H]4CC[C@H](N5CCOCC5)CC4)c3c2)cnc1F [Example 2-32, 6-[6-fluoro-5-(methylamino)pyridin-3-yl]-N-[trans-4-(morpholin-4-yl)cyclohexyl]quinazolin-4-amine]
28 | 184 | Cc1nc[nH]c1-c1ccc2ncnc(N[C@H]3CC[C@H](N4CCOCC4)CC3)c2c1 [Example 2-19, 6-(4-methyl-1H-imidazol-5-yl)-N-[trans-4-(morpholin-4-yl)cyclohexyl]quinazolin-4-amine]
29 | 119 | FC(F)(F)c1cncc(-c2ccc3ncnc(N[C@H]4CC[C@H](N5CCOCC5)CC4)c3c2)c1 [Example 2-4, N-(trans-4-morpholin-4-ylcyclohexyl)-6-[5-(trifluoromethyl)pyridin-3-yl]quinazolin-4-amine]
30 | 28 | Fc1cc(-c2ccc3ncnc(N[C@H]4CC[C@H](N5CCOCC5)CC4)c3c2)cnc1Cl [Example 2-33, 6-(6-chloro-5-fluoropyridin-3-yl)-N-[trans-4-(morpholin-4-yl)cyclohexyl]quinazolin-4-amine]
31 | 8 | CNc1cncc(-c2ccc3ncnc(N[C@H]4CC[C@H](N5CCN(S(C)(=O)=O)CC5)CC4)c3c2)c1 [Example 5-7, 6-[5-(methylamino)pyridin-3-yl]-N-{trans-4-[4-(methylsulfonyl)piperazin-1-yl]cyclohexyl}quinazolin-4-amine]
32 | 88 | Cc1nc(-c2ccc3ncnc(N[C@H]4CC[C@H](N5CCOCC5)CC4)c3c2)c[nH]1 [Example 2-25, 6-(2-methyl-1H-imidazol-4-yl)-N-[trans-4-(morpholin-4-yl)cyclohexyl]quinazolin-4-amine]
33 | 261 | Cn1cc(-c2ccc3ncnc(N[C@H]4CC[C@H](N5CCOCC5)CC4)c3c2)c(CO)n1 [Example 2-12, (1-methyl-4-{4-[(trans-4-morpholin-4-ylcyclohexyl)amino]quinazolin-6-yl}-1H-pyrazol-3-yl)methanol]
34 | 1 | CNc1cc(-c2ccc3ncnc(N[C@H]4CC[C@H](N5CCO[C@@H](C)C5)CC4)c3c2)cnc1F [Example 5-31, 6-[6-fluoro-5-(methylamino)pyridin-3-yl]-N-{trans-4-[(2S)-2-methylmorpholin-4-yl]cyclohexyl}quinazolin-4-amine]
35 | 1 | Nc1cc(-c2ccc3ncnc(N[C@H]4CC[C@H](N5CCC(F)CC5)CC4)c3c2)cnc1F [Example 5-16, 6-(5-amino-6-fluoropyridin-3-yl)-N-[trans-4-(4-fluoropiperidin-1-yl)cyclohexyl]quinazolin-4-amine]
